Values of other authors in article PMC3066546, “Development of modified nucleosides that have supremely high anti-HIV activity and low toxicity and prevent the emergence of resistant HIV mutants” (Proceedings of the Japan Academy. Series B, Physical and …, 2011).
pEC50: −log10 of the molar value. Like-named read-outs stand apart in the source and are kept apart here.

Assays:
HIV-1wild = tested on: HIV-1wild; design: method as in PMID 18487070; conditions: Table 7; read-out: Anti-HIV activity (MAGI assay, µg) HIV-1wild
HIV-1MDR = tested on: HIV-1MDR; design: method as in PMID 18487070; conditions: Table 7; read-out: Anti-HIV activity (MAGI assay, µg) HIV-1MDR
HIV-1M184V = tested on: HIV-1M184V; design: method as in PMID 18487070; conditions: Table 7; read-out: Anti-HIV activity (MAGI assay, µg) HIV-1M184V
HIV = tested on: HIV; design: method as in PMID 7764216; conditions: Table 1; for pEC50: anti-HIV
HIV-1LAI = conditions: MTT assay, MT-4 cells
HXB2 (wild type HIV) = tested on: HXB2 (wild type HIV); design: method as in PMID 11087576, PMID 11577734, PMID 15200030; conditions: MAGI assay
KH65R drug-resistant HIV = tested on: KH65R drug-resistant HIV; design: method as in PMID 11087576, PMID 11577734, PMID 15200030; conditions: MAGI assay
L74V drug-resistant HIV = tested on: L74V drug-resistant HIV; design: method as in PMID 11087576, PMID 11577734, PMID 15200030; conditions: MAGI assay
M184V drug-resistant HIV = tested on: M184V drug-resistant HIV; design: method as in PMID 11087576, PMID 11577734, PMID 15200030; conditions: MAGI assay
M184I drug-resistant HIV = tested on: M184I drug-resistant HIV; design: method as in PMID 11087576, PMID 11577734, PMID 15200030; conditions: MAGI assay
[1] = tested on: MDR (multidrug-resistant HIV); conditions: MAGI assay
[2] = cytotoxic concentration, Table 1
[3] = tested on: 41/215 drug-resistant HIV; design: method as in PMID 11087576, PMID 11577734, PMID 15200030; conditions: MAGI assay
[4] = tested on: 41/69/ 125/SG drug-resistant HIV; design: method as in PMID 11087576, PMID 11577734, PMID 15200030; conditions: MAGI assay
ICR mice = conditions: for Mortality (%): six-week-old ICR male mice

In the case of `C#C[C@@]1(CO)CC[C@H](n2cnc3c(N)nc(F)nc32)O1` [4′Edd2FA, 2′,3′-dideoxy-4′-C-ethynyl-2-fluoroadenosine], the pEC50 (HIV-1wild) is given as 6.03, the pEC50 (HIV-1MDR) is given as 5.06 and the pEC50 (HIV-1M184V) is given as 4.01.
In the case of `C[C@]1(CO)O[C@@H](n2ccc(N)nc2=O)C[C@@H]1O` [C00001 Cy, 4′-C-methyl-2′-deoxycytidine], the “SI (CC50/EC50)” value (HIV) is listed as 1.8, the pEC50 (HIV) is listed as 7.14 and the pEC50 (HIV-1LAI; Table 2) is listed as 7.82. For the same compound, the pEC50 (HXB2 (wild type HIV)) was 8.24, the pEC50 (KH65R drug-resistant HIV) was 8.15 and the pEC50 (L74V drug-resistant HIV) was 8.21. The pEC50 (M184V drug-resistant HIV) was 6.70, the pEC50 (M184I drug-resistant HIV) was 6.13 and the pEC50 [1] was 8.48. The CC50 [2] was 0.13 µM, the CC50 (MT-4 cells; Table 2) was 1 µM and the CC50 (Hela cells; Table 4, Hela cells) was over 200 µM.
For `Cc1cn([C@H]2C[C@H](O)[C@@](C#N)(CO)O2)c(=O)[nH]c1=O` [4′-C-cyanothymidine], the pEC50 (HIV-1LAI; Table 2) is listed as 8.70 and the CC50 (MT-4 cells; Table 2) is listed as 1 µM.
For `Cc1cn([C@H]2C=C[C@@H](CO)O2)c(=O)[nH]c1=O` [d4T, 2′,3′-didehydro-3′-deoxythymidine, reference compound], the “SI (CC50/EC50)” value (HIV) is listed as over 120, the pEC50 (HIV) is listed as 5.39 and the pEC50 (HIV-1wild) is listed as 5.12. For the same compound, the pEC50 (HIV-1MDR) was 4.19, the pEC50 (HIV-1M184V) was 5.25 and the CC50 [2] was over 500 µM.
For `Cc1cn([C@H]2CC[C@@](C)(CO)O2)c(=O)[nH]c1=O` [C00003 Th], the “SI (CC50/EC50)” value (HIV) is given as “∼1”, the pEC50 (HIV) is given as under 3.30 and the CC50 [2] is given as over 500 µM.
In the case of `Cc1cn([C@H]2C[C@H](O)[C@](CO)(N=[N+]=[N-])O2)c(=O)[nH]c1=O` [4′-C-azidothymidine], the pEC50 (HIV-1LAI; Table 2) is listed as 8.00 and the CC50 (MT-4 cells; Table 2) is listed as 8 µM.
In the case of `C#C[C@@]1(CO)C=C[C@H](n2cnc3c(N)nc(F)nc32)O1` [4′Ed42FA, 2′,3′-didehydrodideoxy-4′-C-ethynyl-2-fluoroadenosine], the pEC50 (HIV-1wild) is given as 6.10, the pEC50 (HIV-1MDR) is given as 6.82 and the pEC50 (HIV-1M184V) is given as 5.74.
In the case of `C[C@@]1(CO)C=C[C@H](n2ccc(N)nc2=O)O1` [C00002 Cy], the pEC50 (HIV) is listed as 3.46 and the CC50 [2] is listed as 350 µM.
For `Cc1cn([C@H]2C[C@H](O)C(CO)(CO)O2)c(=O)[nH]c1=O` [4′-C-hydroxymethylthymidine], the pEC50 (HIV-1LAI; Table 2) is listed as 5.15 and the CC50 (MT-4 cells; Table 2) is listed as over 400 µM.
For `C[C@@]1(CO)C=C[C@H](n2cnc3c(N)ncnc32)O1` [C00002 Ad], the “SI (CC50/EC50)” value (HIV) is given as “∼1”, the pEC50 (HIV) is given as under 3.30 and the CC50 [2] is given as over 500 µM.
For `O=c1[nH]cnc2c1ncn2[C@H]1CC[C@@H](CO)O1` [ddI, reference compound], the pEC50 (HXB2 (wild type HIV)) is given as 5.41, the pEC50 (KH65R drug-resistant HIV) is given as 4.90 and the pEC50 (L74V drug-resistant HIV) is given as 4.71. For the same compound, the pEC50 [3] was 5.44, the pEC50 (M184V drug-resistant HIV) was 5.00 and the pEC50 [4] was 4.91. The pEC50 [1] was 4.60 and the CC50 (Hela cells) was over 100 µM.
In the case of `C=C[C@]1(CO)O[C@@H](n2cc(C)c(=O)[nH]c2=O)C[C@@H]1O` [4′-C-vinylthymidine], the pEC50 (HIV-1LAI; Table 2) is listed as under 3.40 and the CC50 (MT-4 cells; Table 2) is listed as over 400 µM.
In the case of `N#C[C@]1(CO)O[C@@H](n2cnc3c(O)ncnc32)C[C@@H]1O` [C00004 I], the pEC50 (HIV-1LAI; Table 3) is given as 7.29 and the CC50 (MT-4 cells; Table 3) is given as 23 µM.
In the case of `C#C[C@]1(CO)O[C@@H](n2cnc3c(O)ncnc32)C[C@@H]1O` [4′EdI, 2′-deoxy-4′-C-ethynylinosine], the pEC50 (HIV-1LAI; Table 3) is listed as 6.82, the pEC50 (HXB2 (wild type HIV)) is listed as 6.09 and the pEC50 (KH65R drug-resistant HIV) is listed as 6.60. For the same compound, the pEC50 (L74V drug-resistant HIV) was 6.21, the pEC50 [3] was 5.89 and the pEC50 (M184V drug-resistant HIV) was 5.80. The pEC50 (M184I drug-resistant HIV) was 5.82, the pEC50 [4] was 5.66 and the pEC50 [1] was 6.29. The CC50 (MT-4 cells; Table 3) was 216 µM, the CC50 (Hela cells; Table 4, Hela cells) was over 200 µM and the “Mortality (%)” value (ICR mice; intraveneous administration, 1 mg/Kg) was 0%. For the same compound, the “Mortality (%)” value (ICR mice; intraveneous administration, 3 mg/Kg) was 0%, the “Mortality (%)” value (ICR mice; intraveneous administration, 10 mg/Kg) was 0% and the “Mortality (%)” value (ICR mice; intraveneous administration, 100 mg/Kg) was 0%. For the same compound, the “Mortality (%)” value (ICR mice; oral administration, 1 mg/Kg) was 0%, the “Mortality (%)” value (ICR mice; oral administration, 3 mg/Kg) was 0% and the “Mortality (%)” value (ICR mice; oral administration, 10 mg/Kg) was 0%. For the same compound, the “Mortality (%)” value (ICR mice; oral administration, 100 mg/Kg) was 0% and the survival of mice (ICR mice; single dosage of 3–100 mg kg−1, both intravenous and oral) was “All eight mice survived”.
In the case of `C#C[C@]1(CO)O[C@@H](n2ccc(N)nc2=O)C[C@@H]1O` [L-4′-C-ethynyl-2′-deoxycytidine], the pEC50 (HIV-1LAI; Table 2) is listed as under 3.40.
For `Cc1cn([C@H]2C=C[C@@](C)(CO)O2)c(=O)[nH]c1=O` [C00002 Th], the “SI (CC50/EC50)” value (HIV) is given as 16, the pEC50 (HIV) is given as 4.68 and the CC50 [2] is given as 330 µM.
In the case of `C[C@@]1(CO)CC[C@H](n2cnc3c(N)ncnc32)O1` [C00003 Ad], the “SI (CC50/EC50)” value (HIV) is given as 13, the pEC50 (HIV) is given as 4.52 and the CC50 [2] is given as 400 µM.
In the case of `CO[C@]1(CO)O[C@@H](n2cc(C)c(=O)[nH]c2=O)C[C@@H]1O` [4′-C-methoxythymidine], the pEC50 (HIV-1LAI; Table 2) is listed as 5.07 and the CC50 (MT-4 cells; Table 2) is listed as 200 µM.
